Structures can show the parent of a compound that is named as a salt. Where two headings read alike, the source gives them in different places.
System: iCell cardiomyocytes (human iPSC-derived cardiomyocytes)
Test: Intracellular Ca2+ flux / beating parameters in iCell cardiomyocytes (FLIPR tetra), 90 min or 24 h
Type: cell-based
Conditions: Homo sapiens, Cardiomyocyte, 0.00 µM = 100.00; for activity at 0.1 µM: 0.10 µM
In short: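 PODs were defined as the concentration crossing one SD of the vehicle-control means (0.5% DMSO) on four-parameter logistic fits of Ca2+ trace metrics (peak height, frequency, peak-spacing CV, decay/rise ratio). Traces came from 100 s, 8 Hz FLIPR reads at 37 °C on calcium-dye-loaded iCell cardiomyocytes. Before reading, cells were treated for 90 min or 24 h from 5× chemical plates spanning 0.05–500 µM, in triplicate.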

[1] = 1.5 h, read-out: cm.amp.avg.90min
[2] = 1.5 h, read-out: cm.amp.cv.90min
[3] = 1.5 h, read-out: cm.decay.rise.90min
[4] = 1.5 h, read-out: cm.spacing.cv.90min
[5] = 24 h, read-out: cm.amp.avg.24hrs
[6] = 24 h, read-out: cm.amp.cv.24hrs
[7] = 24 h, read-out: cm.decay.rise.24hrs
[8] = 24 h, read-out: cm.spacing.cv.24hrs

`Oc1cccc(-c2ccc(Cl)cc2)c1` [3'-OH PCB3] was tested, and the activity at 0.01 µM [1] was 95.3%, the activity at 0.01 µM [2] was 94.5% and the activity at 0.01 µM (1.5 h, read-out: cm.bpm.90min) was 97.8%. The activity at 0.01 µM [3] was 96.7%, the activity at 0.01 µM [4] was 101% and the activity at 0.1 µM [1] was 100%. It also gave an activity at 0.1 µM [2] of 80.2%, an activity at 0.1 µM (1.5 h, read-out: cm.bpm.90min) of 102% and an activity at 0.1 µM [3] of 97.5%. For the same compound, the activity at 0.1 µM [4] was 106%, the activity at 1 µM [1] was 97.7% and the activity at 1 µM [2] was 92.4%. The activity at 1 µM (1.5 h, read-out: cm.bpm.90min) was 105%, the activity at 1 µM [3] was 102% and the activity at 1 µM [4] was 98.3%. The activity at 10 µM [1] was 90.4%, the activity at 10 µM [2] was 103% and the activity at 10 µM (1.5 h, read-out: cm.bpm.90min) was 130%. It also gave an activity at 10 µM [3] of 97.2%, an activity at 10 µM [4] of 123% and an activity at 100 µM [1] of 0%. It also gave an activity at 100 µM [2] of 0%, an activity at 100 µM (1.5 h, read-out: cm.bpm.90min) of 0% and an activity at 100 µM [3] of 0%. The activity at 100 µM [4] was 0%, the activity at 0.01 µM [5] was 82.3% and the activity at 0.01 µM [6] was 114%. The activity at 0.01 µM (24 h, read-out: cm.bpm.24hrs) was 104%, the activity at 0.01 µM [7] was 102% and the activity at 0.01 µM [8] was 105%. It also gave an activity at 0.1 µM [5] of 110%, an activity at 0.1 µM [6] of 78.7% and an activity at 0.1 µM (24 h, read-out: cm.bpm.24hrs) of 97.4%. The activity at 0.1 µM [7] was 94.2%, the activity at 0.1 µM [8] was 100% and the activity at 1 µM [5] was 88.2%. The activity at 1 µM [6] was 107%, the activity at 1 µM (24 h, read-out: cm.bpm.24hrs) was 99.3% and the activity at 1 µM [7] was 102%. The activity at 1 µM [8] was 97%, the activity at 10 µM [5] was 22% and the activity at 10 µM [6] was 101%. The activity at 10 µM (24 h, read-out: cm.bpm.24hrs) was 56.3%, the activity at 10 µM [7] was 44.1% and the activity at 10 µM [8] was 54.5%. For the same compound, the activity at 100 µM [5] was 0%, the activity at 100 µM [6] was 0% and the activity at 100 µM (24 h, read-out: cm.bpm.24hrs) was 0%. For the same compound, the activity at 100 µM [7] was 0% and the activity at 100 µM [8] was 0%.

In the case of `O=S(=O)(O)Oc1cccc(-c2ccc(Cl)cc2)c1` [3'-yl PCB 3 sulfate], the activity at 0.01 µM [1] was 106%, the activity at 0.01 µM [2] was 121% and the activity at 0.01 µM (1.5 h, read-out: cm.bpm.90min) was 96.5%. The activity at 0.01 µM [3] was 95.8%, the activity at 0.01 µM [4] was 108% and the activity at 0.1 µM [1] was 106%. It also gave an activity at 0.1 µM [2] of 103%, an activity at 0.1 µM (1.5 h, read-out: cm.bpm.90min) of 100% and an activity at 0.1 µM [3] of 99.3%. For the same compound, the activity at 0.1 µM [4] was 110%, the activity at 1 µM [1] was 111% and the activity at 1 µM [2] was 84.7%. For the same compound, the activity at 1 µM (1.5 h, read-out: cm.bpm.90min) was 99.1%, the activity at 1 µM [3] was 96.2% and the activity at 1 µM [4] was 94.2%. It also gave an activity at 10 µM [1] of 109%, an activity at 10 µM [2] of 88.3% and an activity at 10 µM (1.5 h, read-out: cm.bpm.90min) of 100%. It also gave an activity at 10 µM [3] of 95.3%, an activity at 10 µM [4] of 94.3% and an activity at 100 µM [1] of 109%. The activity at 100 µM [2] was 86.7%, the activity at 100 µM (1.5 h, read-out: cm.bpm.90min) was 91.5% and the activity at 100 µM [3] was 99.4%. It also gave an activity at 100 µM [4] of 107%, an activity at 0.01 µM [5] of 79% and an activity at 0.01 µM [6] of 31.6%. For the same compound, the activity at 0.01 µM (24 h, read-out: cm.bpm.24hrs) was 52.5%, the activity at 0.01 µM [7] was 45.2% and the activity at 0.01 µM [8] was 48.7%. For the same compound, the activity at 0.1 µM [5] was 60.9%, the activity at 0.1 µM [6] was 151% and the activity at 0.1 µM (24 h, read-out: cm.bpm.24hrs) was 102%. For the same compound, the activity at 0.1 µM [7] was 90.7%, the activity at 0.1 µM [8] was 98.6% and the activity at 1 µM [5] was 86.6%. The activity at 1 µM [6] was 96.4%, the activity at 1 µM (24 h, read-out: cm.bpm.24hrs) was 89.7% and the activity at 1 µM [7] was 117%. For the same compound, the activity at 1 µM [8] was 96.2%, the activity at 10 µM [5] was 75% and the activity at 10 µM [6] was 122%. For the same compound, the activity at 10 µM (24 h, read-out: cm.bpm.24hrs) was 101%, the activity at 10 µM [7] was 98.6% and the activity at 10 µM [8] was 93.8%. It also gave an activity at 100 µM [5] of 85%, an activity at 100 µM [6] of 91.8% and an activity at 100 µM (24 h, read-out: cm.bpm.24hrs) of 92.6%. The activity at 100 µM [7] was 99% and the activity at 100 µM [8] was 87.7%.

Reference: paper PMC7377239, “Cardiovascular Effects of Polychlorinated Biphenyls and Their Major Metabolites” (Environmental Health Perspectives, 2020)
